Among the test systems are A498 renal; MDA-MB-231 breast; MOLT-4 leukemia; NCI-H23 lung; OVCAR-5 ovarian; RXF 393 renal; SF-295 CNS; SW-620 colon; UACC-257 melanoma; NCI-H522 lung.
What all share (experiment): NCI anticancer screen, dose series, 48 h

Where “and” joins values, the source holds several entries; their conditions need not be identical. Equal values may be shown once.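 How tested: cells in 96-well plates exposed to compound for 48 hours at five concentrations. The concentration for 50% growth inhibition is given as GI50. TGI is the concentration that stops growth completely.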

Consider `O=P([O-])(O)OP(=O)([O-])O.[NH-][C@H]1CCCC[C@@H]1[NH-].[OH-].[OH-].[Pt+4]`, for which the GI50 in the assay on A498 renal was 21.1 µM; in the assay on MDA-MB-231 breast it was 25 µM; in the assay with MOLT-4 leukemia, above 100 µM; in the assay on NCI-H23 lung, 20.8 µM; in the assay with OVCAR-5 ovarian it was 26.3 µM; in the assay with RXF 393 renal it was 17.6 µM. Besides, the GI50 with SF-295 CNS was 19.8 µM; in the assay with SW-620 colon it was 55.8 µM; in the assay on UACC-257 melanoma it was 37 µM. Further, the TGI is 39.9 µM in the assay with A498 renal; 57.2 µM in the assay on MDA-MB-231 breast; above 100 µM in the assay on MOLT-4 leukemia; 46.1 µM in the assay with NCI-H23 lung; 63.2 µM in the assay on OVCAR-5 ovarian; 36.1 µM with RXF 393 renal. Moreover, the TGI in the assay with SF-295 CNS is 44.1 µM; with SW-620 colon, above 100 µM; in the assay on UACC-257 melanoma, above 100 µM.
Turning to `O=C(O)c1ccccc1Cc1ccco1`, the TGI in the assay with A498 renal, in the assay with MOLT-4 leukemia, with NCI-H23 lung, with NCI-H522 lung, in the assay on OVCAR-5 ovarian and in the assay with RXF 393 renal was above 100 µM each time. For the same molecule, the TGI in the assay with SF-295 CNS, in the assay on SW-620 colon and in the assay on UACC-257 melanoma was above 100 µM in each case.
`NS(=O)(=O)c1ccc(NC(=O)c2ccc(NC3=C(Cl)C(=O)N(Cc4ccccc4)C3=O)cc2)cc1`: the GI50 in the assay on A498 renal is 14.9 µM; in the assay on MDA-MB-231 breast, 2.65 µM; in the assay on NCI-H23 lung, 3.42 µM; in the assay with NCI-H522 lung it was 1.91 µM; in the assay with OVCAR-5 ovarian it was 15.5 µM; in the assay with SF-295 CNS it was 3.03 µM. For the same molecule, the GI50 in the assay on SW-620 colon was 2.69 µM; in the assay on UACC-257 melanoma, 18.2 µM. The TGI in the assay on A498 renal is 32.6 µM; with MDA-MB-231 breast, 8.11 µM; with NCI-H23 lung it was 14.3 µM; in the assay with NCI-H522 lung, 4.78 µM; in the assay on OVCAR-5 ovarian, 33.1 µM; with SF-295 CNS it was 17.8 µM. Besides, the TGI in the assay with SW-620 colon turned out to be 7.78 µM; with UACC-257 melanoma, 56.7 µM.
As to `Cc1cccc(C(=O)c2cccc3ccccc23)c1C(=O)O`, the TGI with A498 renal, in the assay on MOLT-4 leukemia, with NCI-H23 lung, in the assay with NCI-H522 lung, in the assay on OVCAR-5 ovarian and with RXF 393 renal was above 100 µM each time. Besides, the TGI in the assay on SF-295 CNS, in the assay with SW-620 colon and with UACC-257 melanoma was above 100 µM in each case.
`CCCCCCCCCCCOC(=S)NC(C)C`: the TGI stood at 39 µM in the assay with A498 renal; 36.2 µM in the assay with MOLT-4 leukemia; 38.1 µM with NCI-H23 lung; 39.7 µM in the assay with NCI-H522 lung; 52.5 µM with OVCAR-5 ovarian; 42.9 µM in the assay with RXF 393 renal. Also, the figures for the TGI in the assay with SF-295 CNS, with SW-620 colon and in the assay on UACC-257 melanoma were 40.7 µM, 30.2 µM and 42.6 µM, respectively.
Take `CC(=O)N1CCN(C2=Nc3ccccc3CO2)C1=S`: the GI50 in the assay with MDA-MB-231 breast is above 100 µM; with MOLT-4 leukemia it was 41.9 µM; with NCI-H23 lung, above 100 µM; with NCI-H522 lung, 49.2 µM; in the assay with OVCAR-5 ovarian, 85.8 µM; in the assay on SF-295 CNS, 43.1 µM. Moreover, the GI50 is 92.5 µM with SW-620 colon and above 100 µM with UACC-257 melanoma. Further, the TGI in the assay on MDA-MB-231 breast, in the assay with MOLT-4 leukemia, with NCI-H23 lung, in the assay with NCI-H522 lung, in the assay with OVCAR-5 ovarian and in the assay with SF-295 CNS was above 100 µM in each case. Also, the TGI in the assay on SW-620 colon and with UACC-257 melanoma was above 100 µM in each case.
As for `Nc1nc(CCC(=O)Nc2cccc(C(F)(F)F)c2)cc(-c2cccc3ccccc23)n1`, the TGI in the assay on A498 renal, in the assay on MOLT-4 leukemia, in the assay on NCI-H23 lung, in the assay with NCI-H522 lung, in the assay with OVCAR-5 ovarian and in the assay with RXF 393 renal was above 100 µM each time. The TGI with SF-295 CNS, in the assay with SW-620 colon and in the assay on UACC-257 melanoma was above 100 µM each time.
Take `CC(C)(C)OC(=O)NCCNC1=CC(=O)c2nc3ccccc3c3ccnc1c23`: the GI50 in the assay on A498 renal was 0.101 µM; in the assay with MDA-MB-231 breast, 18.4 µM; in the assay on NCI-H23 lung it was 17.1 µM; in the assay on NCI-H522 lung it was 18.3 µM; in the assay on OVCAR-5 ovarian, 28 µM; in the assay on SF-295 CNS, 18.2 µM. Further, the GI50 in the assay on SW-620 colon was 15.1 µM; in the assay on UACC-257 melanoma, 23.5 µM. In addition, the TGI with A498 renal is 29.2 µM; with MDA-MB-231 breast, 58.6 µM; in the assay with NCI-H23 lung, 46.8 µM; in the assay with NCI-H522 lung, 44.8 µM; with OVCAR-5 ovarian it was 86.1 µM; in the assay with SF-295 CNS, 40 µM. Further, the TGI in the assay with SW-620 colon turned out to be 37.4 µM; in the assay with UACC-257 melanoma, 75.5 µM.
As for `CCC[CH2][Sn]([CH2]CCC)([O]C(=O)c1c(F)cccc1F)[O]C(=O)c1c(F)cccc1F`, the GI50 was 0.967 µM in the assay on A498 renal; 0.239 µM with MOLT-4 leukemia; 0.439 µM with NCI-H23 lung; 0.0905 µM with NCI-H522 lung; 1.34 µM with OVCAR-5 ovarian; 0.242 µM in the assay on RXF 393 renal. Moreover, the values for the GI50 in the assay with SF-295 CNS, in the assay with SW-620 colon and in the assay with UACC-257 melanoma were 1.56 µM, 0.32 µM and 0.671 µM, respectively. The TGI was determined as 2.16 µM in the assay with A498 renal; 0.818 µM with MOLT-4 leukemia; 1.6 µM with NCI-H23 lung; 0.213 µM in the assay with NCI-H522 lung; 2.61 µM in the assay on OVCAR-5 ovarian; 0.844 µM in the assay with RXF 393 renal. Moreover, the results for the TGI in the assay with SF-295 CNS, in the assay on SW-620 colon and in the assay with UACC-257 melanoma were 2.9 µM, 1.23 µM and 1.99 µM, respectively.
In the case of `O=C(c1ccc2ccccc2c1O)N1CCCCC1`, the TGI in the assay with A498 renal is above 100 µM; in the assay on MDA-MB-231 breast it was above 100 µM; in the assay with MOLT-4 leukemia it was 59.3 µM; in the assay with NCI-H23 lung, 90 µM; in the assay on RXF 393 renal it was above 100 µM; in the assay on SF-295 CNS it was above 100 µM. Also, the TGI in the assay with SW-620 colon and in the assay with UACC-257 melanoma was above 100 µM in each case.
As to `CCOc1ccccc1NC(=O)CCC(=O)OC`, the TGI in the assay with A498 renal, in the assay on MOLT-4 leukemia, with NCI-H23 lung, in the assay on NCI-H522 lung, in the assay with OVCAR-5 ovarian and in the assay on RXF 393 renal was above 100 µM throughout. Moreover, the results for the TGI in the assay with SF-295 CNS, in the assay with SW-620 colon and in the assay with UACC-257 melanoma were above 100 µM, above 60.5 µM and above 100 µM, respectively.
Consider `COc1cc(CCc2cccnc2)cc(OC)c1OC`, for which the TGI with A498 renal, in the assay with MOLT-4 leukemia, with NCI-H23 lung, in the assay on NCI-H522 lung, with OVCAR-5 ovarian and in the assay on RXF 393 renal was above 100 µM throughout. Further, the TGI in the assay on SF-295 CNS, in the assay with SW-620 colon and in the assay on UACC-257 melanoma was above 100 µM throughout.
In the case of `O=C(CC1=Nc2nnc(-c3nnc4n3C(=O)C(CC(=O)c3cccnc3)=N4)n2C1=O)c1cccnc1`, the TGI in the assay with A498 renal, with MOLT-4 leukemia, in the assay with NCI-H23 lung, in the assay with NCI-H522 lung, with OVCAR-5 ovarian and with RXF 393 renal was above 100 µM in each case. The TGI in the assay with SF-295 CNS, with SW-620 colon and in the assay with UACC-257 melanoma was above 100 µM in each case.
For the molecule `COc1cc(C(=O)OCCCCCCCCCCC[P+](c2ccccc2)(c2ccccc2)c2ccccc2)ccc1O`, the GI50 with A498 renal is 1.84 µM; with MDA-MB-231 breast, 0.301 µM; in the assay on MOLT-4 leukemia it was 0.557 µM; in the assay on OVCAR-5 ovarian it was 1.59 µM; in the assay on UACC-257 melanoma it was 0.451 µM. The TGI in the assay on A498 renal was determined as 5.23 µM; in the assay on MDA-MB-231 breast, 1.16 µM; in the assay on MOLT-4 leukemia, 4.31 µM; in the assay on OVCAR-5 ovarian it was 3.25 µM; in the assay with UACC-257 melanoma it was 1.54 µM.
With `Nc1ncnc2c1ncn2C1OC(COP(=O)(O)CP(=O)(O)O)C(O)C1O` (stereo not drawn), the TGI in the assay on A498 renal, in the assay on MOLT-4 leukemia, in the assay on NCI-H23 lung, with NCI-H522 lung, in the assay on OVCAR-5 ovarian and in the assay on RXF 393 renal was above 100 µM in each case. Moreover, the TGI with SF-295 CNS, with SW-620 colon and in the assay with UACC-257 melanoma was above 100 µM in each case.
Consider `CC1[C@@H]2[C@@H](C=C3C4CCC5Cc6nc7c(nc6C[C@@]5(C)C4C[C@H](O)[C@]32CO)CC2CCC3C4=C[C@H]5O[C@@]6(O[C@@](C)(CO)C[C@@H]6O)C(C)[C@@]5(O)[C@]4(C)[C@@H](O)CC3[C@]2(C)C7)O[C@]12CCC(C)(C)O2` (stereo partly drawn), for which the GI50 with A498 renal is 0.00409 µM; with NCI-H522 lung, 0.0228 µM; with OVCAR-5 ovarian, 0.00878 µM; in the assay with RXF 393 renal, below 0.000365 µM; with SF-295 CNS, below 0.000365 µM; in the assay with SW-620 colon, 0.0079 µM. For the same molecule, the TGI in the assay on A498 renal was 0.0841 µM and 0.165 µM; with MOLT-4 leukemia, 0.0161 µM; in the assay with NCI-H23 lung it was 0.574 µM; in the assay on NCI-H522 lung it was 0.429 µM; in the assay on OVCAR-5 ovarian, 0.961 µM and 0.108 µM; with SW-620 colon, 0.175 µM and 0.0892 µM. Besides, the TGI in the assay with UACC-257 melanoma is 0.305 µM and 0.392 µM.
`CN1CCc2cc3c(cc2C1O)OCO3` (stereo not drawn): the GI50 in the assay on A498 renal was 22.9 µM and > 100 µM; in the assay on MDA-MB-231 breast, 17.6 µM and > 100 µM; with MOLT-4 leukemia, 23.4 µM and > 100 µM; in the assay on OVCAR-5 ovarian it was 19 µM and > 100 µM; in the assay with RXF 393 renal, 17.9 µM and > 100 µM; with SF-295 CNS it was 26.7 µM and > 100 µM. Further, the GI50 in the assay with SW-620 colon was 16.6 µM and > 100 µM. Also, the TGI in the assay with A498 renal was 39.9 µM and > 100 µM; with MDA-MB-231 breast it was 35 µM and > 100 µM; in the assay with MOLT-4 leukemia it was 81.6 µM and > 100 µM; in the assay with NCI-H23 lung it was 32.1 µM and > 100 µM; in the assay on OVCAR-5 ovarian it was 33.3 µM and > 100 µM; in the assay with RXF 393 renal it was 35.2 µM and > 100 µM. Besides, the TGI was above 100 µM in the assay with SF-295 CNS; 33.8 µM and > 100 µM in the assay with SW-620 colon; 10.8 µM and > 100 µM with UACC-257 melanoma.

The values are drawn from PubChem BioAssay (NCI).
